The values that follow are results of earlier work, collected in US7258850B2, “Methods and compositions for treating erectile dysfunction” (Aradigm Corporation, priority 1999, dated 2007).

Structures can show the parent of a compound that is named as a salt. Where two headings read alike, the source gives them in different places. No end group written: not given here.

The test system of series [1] is dopamine D1 and D2 receptor. Conditions: rats, apomorphine in combination with sildenafil.
Series [2] has as its system rabbit corpus carvernosum. Conditions: rabbit tissue.
For a further series, the system named is human corpus carvernosum. Conditions: human tissue.
Another series concerns Rho-kinase. Conditions: applied topically, rats.
For another series, the target named is T1, sGC (Rattus norvegicus, UniProt P19686+P20595).
T1 construct: host or cells: in vivo, rat corpus cavernosum
T1 sequence (P20595 1-619): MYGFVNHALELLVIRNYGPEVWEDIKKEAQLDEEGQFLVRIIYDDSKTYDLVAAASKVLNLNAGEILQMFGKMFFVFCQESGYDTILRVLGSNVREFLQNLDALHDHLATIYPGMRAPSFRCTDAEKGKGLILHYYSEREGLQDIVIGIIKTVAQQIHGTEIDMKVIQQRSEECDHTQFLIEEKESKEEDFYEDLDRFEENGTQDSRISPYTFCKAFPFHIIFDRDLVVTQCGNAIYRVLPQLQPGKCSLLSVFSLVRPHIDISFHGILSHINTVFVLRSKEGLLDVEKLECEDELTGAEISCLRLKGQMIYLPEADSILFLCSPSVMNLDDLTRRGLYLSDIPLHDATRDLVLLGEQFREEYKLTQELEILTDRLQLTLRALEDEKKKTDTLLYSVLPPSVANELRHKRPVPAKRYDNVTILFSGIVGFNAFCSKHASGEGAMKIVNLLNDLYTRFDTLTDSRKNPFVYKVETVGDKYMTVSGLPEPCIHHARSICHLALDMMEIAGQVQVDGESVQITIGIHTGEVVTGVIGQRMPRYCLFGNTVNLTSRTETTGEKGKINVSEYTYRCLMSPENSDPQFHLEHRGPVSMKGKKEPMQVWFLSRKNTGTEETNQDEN
T1 sequence (P19686 1-690): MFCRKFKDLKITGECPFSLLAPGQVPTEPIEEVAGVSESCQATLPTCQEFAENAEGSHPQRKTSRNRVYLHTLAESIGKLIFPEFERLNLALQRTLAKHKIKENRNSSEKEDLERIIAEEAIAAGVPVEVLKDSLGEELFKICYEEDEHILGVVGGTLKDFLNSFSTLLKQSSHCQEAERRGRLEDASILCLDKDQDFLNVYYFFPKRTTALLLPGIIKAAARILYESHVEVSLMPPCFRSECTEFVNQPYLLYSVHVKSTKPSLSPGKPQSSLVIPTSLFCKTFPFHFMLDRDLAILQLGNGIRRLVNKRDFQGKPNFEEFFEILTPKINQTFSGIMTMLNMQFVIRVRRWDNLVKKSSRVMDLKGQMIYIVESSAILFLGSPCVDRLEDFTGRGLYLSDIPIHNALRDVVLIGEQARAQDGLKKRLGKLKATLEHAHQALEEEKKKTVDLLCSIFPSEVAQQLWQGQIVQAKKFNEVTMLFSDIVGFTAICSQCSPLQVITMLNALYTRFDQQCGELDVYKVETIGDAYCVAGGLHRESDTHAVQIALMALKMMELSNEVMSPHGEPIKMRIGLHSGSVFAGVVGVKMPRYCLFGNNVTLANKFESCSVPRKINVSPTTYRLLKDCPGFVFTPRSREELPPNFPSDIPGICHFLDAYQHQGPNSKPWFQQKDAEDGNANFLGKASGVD
Conditions: administered intracavernously, rats.

For another series, the system named is smooth muscle. Conditions: intracavernous.

Turning to `CN1CCc2cccc3c2[C@H]1Cc1ccc(O)c(O)c1-3` [Apomorphine], the “duration of erectile response” value is “prolonged in combination with sildenafil” in series [1] and “prolonged by sildenafil” in series [1] (listed as apomorphine).

For the compound `Nc1nc(-c2nn(Cc3ccccc3F)c3ncccc23)ncc1C1CC1` [BAY-41-2272], the “relaxation of corpus cavernosum relative to YC-1” value (in series [2]; with human corpus carvernosum) was “more potently than YC-1” throughout.

As to `C[C@@H](N)[C@H]1CC[C@H](C(=O)Nc2ccncc2)CC1` [Y-27632], the erection result with Rho-kinase was “stimulated erection”. With `OCc1ccc(-c2nn(Cc3ccccc3)c3ccccc23)o1` [YC-1, 3-(5′-hydroxymethyl-2′furyl)-1-benzyl-indazole], the erection entry at sGC is on record as “elicited dose-dependent erection”. On to `CCCc1nn(C)c2c(=O)[nH]c(-c3cc(S(=O)(=O)N4CCN(C)CC4)ccc3OCC)nc12` [sildenifil citrate, Sildenafil citrate], for which the solubility in water result is listed as “relatively insoluble in water”. As for “Vasoactive intestinal peptid: intracavernous drug, potent smooth muscle relaxant (HSDAVFTDNYTRLRKQMAVKKYLNSILN; ends and bridges not checked; UniProt P01282 125-152, looked up)”, in the series on smooth muscle, the duration of effect entry is on record as “up to 2.5 hours”.
